Read-outs that look alike come from different tables or passages of the source.
What was measured:
[1] = Cellular toxicity assay in human PBM cells; assay type: cell-based; settings: human PBM cells, read-out: Cytotoxicity, CC50 (μM) PBM
Protocol: (§1) The toxicity of the compounds was assessed in Vero, human PBM, CEM (human lymphoblastoid), MT-2, and HepG2 cells, as described previously (see Schinazi R. F., Sommadossi J.-P., Saalmann V., Cannon D. L., Xie M.-Y., Hart G. C., Smith G. A. & Hahn E. F. Antimicrob. Agents Chemother. 1990, 34, 1061-67). Cycloheximide was included as positive cytotoxic control, and untreated cells exposed to solvent were included as negative controls. The cytotoxicity IC50 was obtained from the concentration-response curve using the median effective method described previously (see Chou T.-C. & Talalay P. Adv. Enzyme Regul. 1984, 22, 27-55; Belen'kii M. S. & Schinazi R. F. Antiviral Res. 1994, 25, 1-11).

[2] = system: wild type HBV; test: Anti-HBV assay in AD-38 cell line (HBV in culture supernatant); assay type: cell-based; settings: for EC50: read-out: Anti-HBV activity EC50; for EC90: read-out: Anti-HBV activity EC90
Protocol: The anti-HBV activity of the compounds was determined by treating the AD-38 cell line carrying wild type HBV under the control of tetracycline (see Ladner S. K., Otto M. J., Barker C. S., Zaifert K., Wang G. H., Guo J. T., Seeger C. & King R. W. Antimicrob. Agents Chemother. 1997, 41, 1715-20). Removal of tetracycline from the medium [Tet (−)] results in the production of HBV. The levels of HBV in the culture supernatant fluids from cells treated with the compounds were compared with that of the untreated controls. Control cultures with tetracycline [Tet (+)] were also maintained to determine the basal levels of HBV expression. 3TC was included as positive control.
The median effective concentrations (EC50) ranges of several of the compounds described herein against HBV are shown in Table 3: […]

[3] = Cellular toxicity assay in HepG2 cells; assay type: cell-based; settings: human, HepG2 cells; read-out: Cytotoxicity; CC50 (μM) HepG2
Protocol: as §1

[4] = Cellular toxicity assay in Vero cells; assay type: cell-based; settings: African green monkey, Vero cells; read-out: Cytotoxicity; CC50 (μM) VERO
Protocol: as §1

[5] = Cellular toxicity assay in CEM cells; assay type: cell-based, human; settings: human, CEM lymphoblastoid cells; CEM cells; read-out: Cytotoxicity; CC50 (μM) CEM
Protocol: as §1

[6] = Hepatitis B virus, AD-38 cell line, Tet (-)

| SMILES | CC50 ([1]; human) [µM] | EC50 [2, 6] [nM] | EC90 [2, 6] [nM] | CC50 [3] [µM] | CC50 [4] [µM] | CC50 [5] [µM] | EC50 ([2]; Hepatitis B virus) [nM] | EC50 ([2]; AD-38 cell line, Tet (-)) [nM] | CC50 [1] [µM] |
| --- | --- | --- | --- | --- | --- | --- | --- | --- | --- |
| Cc1c(C(=O)C(=O)NCc2cn(CCCCCCn3cc(CNC(=O)C(=O)c4c(C)c(C(=O)Nc5ccc(F)c(F)c5)n(C)c4C)nn3)nn2)c(C)n(C)c1C(=O)Nc1ccc(F)c(F)c1 [Compound 71, 4,4′-(2,2′-(((Hexane-1,6-diylbis(1H-1,2,3-triazole-1,4-diyl))bis(methylene))bis(azanediyl))bis(2-oxoacetyl))bis(N-(3,4-difluorophenyl)-1,3,5-trimethyl-1H-pyrrole-2-carboxamide)] | > 100 | 100 to 1000 | 1000 to 10000 | > 100 | – | – | – | – | – |
| Cc1c(C(=O)C(=O)NCc2cn(CCOCCOCC(COCCOCCn3cc(CNC(=O)C(=O)c4c(C)c(C(=O)Nc5ccc(F)c(F)c5)n(C)c4C)nn3)COCCOCCn3cc(CNC(=O)C(=O)c4c(C)c(C(=O)Nc5ccc(F)c(F)c5)n(C)c4C)nn3)nn2)c(C)n(C)c1C(=O)Nc1ccc(F)c(F)c1 [Compound 122] | – | 100 to 1000 | – | – | – | – | – | – | – |
| Cc1c(C(=O)C(=O)NCc2cn(CCOCCOCCn3cc(CNC(=O)C(=O)c4c(C)c(C(=O)Nc5ccc(F)c(F)c5)n(C)c4C)nn3)nn2)c(C)n(C)c1C(=O)Nc1ccc(F)c(F)c1 [Compound 89, 4,4′-(2,2′-(((((Ethane-1,2-diylbis(oxy))bis(ethane-2,1-diyl))bis(1H-1,2,3-triazole-1,4-diyl))bis (methylene))bis(azanediyl))bis(2-oxoacetyl))bis(N-(3,4-difluorophenyl)-1,3,5-trimethyl-1H-pyrrole-2-carboxamide)] | 68 | 1000 to 10000 | – | > 100 | – | – | – | – | – |
| Cc1c(C(=O)C(=O)NCc2cn(CCOCCOCC(COCCOCCN=[N+]=[N-])(COCCOCCn3cc(CNC(=O)C(=O)c4c(C)c(C(=O)Nc5ccc(F)c(F)c5)n(C)c4C)nn3)COCCOCCn3cc(CNC(=O)C(=O)c4c(C)c(C(=O)Nc5ccc(F)c(F)c5)n(C)c4C)nn3)nn2)c(C)n(C)c1C(=O)Nc1ccc(F)c(F)c1 [Compound 109] | > 100 | 100 to 1000 | 1000 to 10000 | > 100 | – | – | – | – | – |
| Cc1c(C(=O)C(=O)NCc2cn(CCCCCCCCCCn3cc(CNC(=O)C(=O)c4c(C)c(C(=O)Nc5ccc(F)c(F)c5)n(C)c4C)nn3)nn2)c(C)n(C)c1C(=O)Nc1ccc(F)c(F)c1 [Compound 77, 4,4′-(2,2′-(((decane-1,10-diylbis(1H-1,2,3-triazole-1,4-diyl))bis(methylene))bis(azanediyl))bis (2-oxoacetyl))bis(N-(3,4-difluorophenyl)-1,3,5-trimethyl-1H-pyrrole-2-carboxamide)] | > 100 | 1 to 10 | 100 to 1000 | > 100 | – | – | – | – | – |
| Cc1c(C(=O)C(=O)NCc2cn(CCOCCOCC(COCCOCCN=[N+]=[N-])(COCCOCCN=[N+]=[N-])COCCOCCn3cc(CNC(=O)C(=O)c4c(C)c(C(=O)Nc5ccc(F)c(F)c5)n(C)c4C)nn3)nn2)c(C)n(C)c1C(=O)Nc1ccc(F)c(F)c1 [Compound 108, 4,4′-(2,2′-((((8,8-bis((2-(2-azidoethoxy)ethoxy)methyl)-3,6,10,13-tetraoxapentadecane-1,15-diyl)bis(1H-1,2,3-triazole-1,4-diyl))bis(methylene))bis(azanediyl))bis(2-oxoacetyl))bis(N-(3,4-difluorophenyl)-1,3,5-trimethyl-1H-pyrrole-2-carboxamide)] | > 100 | 10 to 100 | 100 to 1000 | > 100 | – | – | – | – | – |
| Cc1c(C(=O)C(=O)NCCCN(CCCNC(=O)C(=O)c2c(C)c(C(=O)Nc3ccc(F)c(F)c3)n(C)c2C)CCCNC(=O)C(=O)c2c(C)c(C(=O)Nc3ccc(F)c(F)c3)n(C)c2C)c(C)n(C)c1C(=O)Nc1ccc(F)c(F)c1 [Compound 16a, 4,4′,4″-(2,2′,2″-((Nitrilotris(propane-3,1-diyl))tris(azanediyl))tris(2-oxoacetyl))tris(N-(3,4-difluorophenyl)-1,3,5-trimethyl-1H-pyrrole-2-carboxamide)] | > 100 | 100 to 1000 | 1000 to 10000 | > 100 | 9 | > 100 | – | – | – |
| C#CCNC(=O)C(=O)c1c(C)c(C(=O)Nc2ccc(F)c(F)c2)n(CC#CC)c1C [Compound 119, 1-(But-2-yn-1-yl)-N-(3,4-difluorophenyl)-3,5-dimethyl-4-(2-oxo-2-(prop-2-yn-1-ylamino)acetyl)-1H-pyrrole-2-carboxamide] | > 100 | – | – | > 100 | – | – | 10 to 100 | – | – |
| Cc1c(C(=O)C(=O)NCc2cn(CCCCCCCCn3cc(CNC(=O)C(=O)c4c(C)c(C(=O)Nc5ccc(F)c(F)c5)n(C)c4C)nn3)nn2)c(C)n(C)c1C(=O)Nc1ccc(F)c(F)c1 [Compound 74, 4,4′-(2,2′-(((Octane-1,8-diylbis(1H-1,2,3-triazole-1,4-diyl))bis(methylene))bis(azanediyl))bis(2-oxoacetyl))bis(N-(3,4-difluorophenyl)-1,3,5-trimethyl-1H-pyrrole-2-carboxamide)] | > 100 | 0.1 to 1 | 1 to 10 | > 100 | – | – | – | – | – |
| Cc1c(C(=O)C(=O)NCc2cn(CCOCCOCCOCCOCCOCCn3cc(CNC(=O)C(=O)c4c(C)c(C(=O)Nc5ccc(F)c(F)c5)n(C)c4C)nn3)nn2)c(C)n(C)c1C(=O)Nc1ccc(F)c(F)c1 [Compound 95, 4,4′-(2,2′-((((3,6,9,12,15-Pentaoxaheptadecane-1,17-diyl)bis(1H-1,2,3-triazole-1,4-diyl))bis (methylene))bis(azanediyl))bis(2-oxoacetyl))bis(N-(3,4-difluorophenyl)-1,3,5-trimethyl-1H-pyrrole-2-carboxamide)] | – | – | – | – | – | – | – | 10 to 100 | – |
| C#CCn1c(C)c(C(=O)C(=O)NC(C)(C)C#C)c(C)c1C(=O)Nc1ccc(F)c(F)c1 [Compound 120, N-(3,4-Difluorophenyl)-3,5-dimethyl-4-(2-((2-methylbut-3-yn-2-yl)amino)-2-oxoacetyl)-1-(prop-2-yn-1-yl)-1H-pyrrole-2-carboxamide] | > 100 | 0.01 to 0.1 | 1 to 10 | > 100 | – | – | – | – | – |
| Cc1c(C(=O)C(=O)NCc2cn(CCOCCn3cc(CNC(=O)C(=O)c4c(C)c(C(=O)Nc5ccc(F)c(F)c5)n(C)c4C)nn3)nn2)c(C)n(C)c1C(=O)Nc1ccc(F)c(F)c1 [Compound 85, 4,4′-(2,2′-((((oxybis(ethane-2,1-diyl))bis(1H-1,2,3-triazole-1,4-diyl))bis(methylene))bis(azanediyl))bis(2-oxoacetyl))bis(N-(3,4-difluorophenyl)-1,3,5-trimethyl-1H-pyrrole-2-carboxamide)] | – | 1000 to 10000 | – | – | – | – | – | – | – |
| CCOP(=O)(Cn1cc(CNC(=O)C(=O)c2c(C)c(C(=O)Nc3ccc(F)c(F)c3)n(C)c2C)nn1)OCC [Compound 68, Diethyl((4-((2-(5-((3,4-difluorophenyl)carbamoyl)-1,2,4-trimethyl-1H-pyrrol-3-yl)-2-oxoacetamido)methyl)-1H-1,2,3-triazol-1-yl)methyl) phosphonate] | – | – | – | > 100 | – | – | 100 to 1000 | – | 70 |
| Cc1c(C(=O)C(=O)NCc2cn(CCOCCOCC(COCCOCCn3cc(CNC(=O)C(=O)c4c(C)c(C(=O)Nc5ccc(F)c(F)c5)n(C)c4C)nn3)(COCCOCCn3cc(CNC(=O)C(=O)c4c(C)c(C(=O)Nc5ccc(F)c(F)c5)n(C)c4C)nn3)COCCOCCn3cc(CNC(=O)C(=O)c4c(C)c(C(=O)Nc5ccc(F)c(F)c5)n(C)c4C)nn3)nn2)c(C)n(C)c1C(=O)Nc1ccc(F)c(F)c1 [Compound 110] | > 100 | 100 to 1000 | 1000 to 10000 | > 100 | – | – | – | – | – |
| Nc1ccn([C@@H]2CS[C@H](CO)O2)c(=O)n1 [Compound 3TC, lamivudine, reference compound] | – | 100 to 1000 | 1000 to 10000 | – | – | – | – | – | – |
| Cc1c(C(=O)C(=O)NCc2cn(CCOCCOCCOCCn3cc(CNC(=O)C(=O)c4c(C)c(C(=O)Nc5ccc(F)c(F)c5)n(C)c4C)nn3)nn2)c(C)n(C)c1C(=O)Nc1ccc(F)c(F)c1 [Compound 94, 4,4′-(2,2′-((((((oxybis(ethane-2,1-diyl))bis(oxy))bis(ethane-2,1-diyl))bis(1H-1,2,3-triazole-1,4-diyl))bis(methylene))bis(azanediyl))bis(2-oxoacetyl))bis(N-(3,4-difluorophenyl)-1,3,5-trimethyl-1H-pyrrole-2-carboxamide)] | > 100 | 1 to 10 | – | > 100 | – | – | – | – | – |
